# Data as given in ChEMBL document CHEMBL1201862, “PubChem BioAssay data set” (2004).
# Activity calls are given as the source filed them.
# Legend:
# [1] = target: T1, Sentrin-specific protease 8 (Homo sapiens, UniProt Q96LD8); assay type: functional
# T1 sequence (Q96LD8 whole entry): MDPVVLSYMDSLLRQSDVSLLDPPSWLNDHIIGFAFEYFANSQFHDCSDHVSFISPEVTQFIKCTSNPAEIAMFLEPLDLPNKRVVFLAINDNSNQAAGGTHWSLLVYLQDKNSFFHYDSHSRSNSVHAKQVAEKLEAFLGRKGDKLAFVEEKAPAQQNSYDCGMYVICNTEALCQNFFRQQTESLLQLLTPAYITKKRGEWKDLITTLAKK
# [2] = target: T1, Sentrin-specific protease 8; assay type: functional; remark: listed apart in the source
# [3] = target: Glucose-6-phosphate 1-dehydrogenase (Homo sapiens, UniProt P11413); experiment: human G6PD enzyme inhibitors, dose response, selectivity assay for P. falciparum G6PD inhibitor project, biochemical, fluorescence (AID 504792); assay type: functional
# [4] = target: Mitochondrial peptide methionine sulfoxide reductase (Bos taurus, UniProt P54149); assay type: functional;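 further: absorbance read-out, biochemical high-throughput dose-response screen for MsrA inhibitors, confirmatory; recombinant bovine MsrA coupled to E. coli TrxB with NADPH and selenocystamine; potency is for inhibitors of MsrA activity on DMSO substrate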
# Paired box protein Pax-8 = Paired box protein Pax-8 (Homo sapiens, UniProt Q06710); experiment: inhibitors of PAX8-driven TPO luciferase reporter, dose response, RMG-I cells, cherry-pick (AID 687027); assay type: functional, cell-based;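 further: luciferase reporter driven by Pax8 target thyroperoxidase promoter measured by SteadyGlo luminescence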
# [5] = A549 cell cytotoxicity, dose response, cytotoxicity control, plate reader, cherry-pick, antagonist series (AID 743412); assay type: functional, cell-based
# [6] = HepG2 cell cytotoxicity, dose response, cytotoxicity control, plate reader, cherry-pick, antagonist series (AID 743416); assay type: functional, cell-based
# [7] = LGR2 antagonists, dose response, cell-based, HEK293, CRE-luciferase reporter, cherry pick, set 2 (AID 743343); assay type: functional;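 further: transfected cells were stimulated with diluted bursicon conditioned medium after compound addition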
# [8] = non-specific cell cytotoxicity, dose response, cytotoxicity control for PAX8 inhibitor project, plate reader, dry powder samples (AID 743021); assay type: functional, cell-based
# [9] = MC4R antagonists, dose response, counter-screen for LGR2 antagonist project, cell-based, plate reader, cherry pick (AID 743444); assay type: functional;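 further: transfected HEK 293 cells stimulated with alpha-MSH peptide; potency of inhibitors of the alpha-MSH evoked signal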
# [10] = HEK293 cell cytotoxicity, dose response, cytotoxicity control, plate reader, cherry-picked samples (AID 743446); assay type: functional, cell-based
# [11] = HEp-2 cell cytotoxicity, dose response, cytotoxicity control for RSV inhibitor project, HTS (AID 2410); assay type: functional; settings: human respiratory syncytial virus
# Beta-galactosidase = Beta-galactosidase (Escherichia coli, UniProt Q8VNN2); experiment: Dose response counterscreen for EBI2 assay utilizing the enzyme, b-galactosidase.; assay type: functional
# [12] = target: T2, Small ubiquitin-related modifier 2 (Homo sapiens, UniProt P61956); experiment: SUMO2–SIM peptide binding inhibitors, dose response, selectivity assay for SUMO1 interaction inhibitor project, biochemical, fluorescence polarization, uHTS hits (AID 624385); assay type: functional; settings: read-out: IC50_Mean
# [13] = target: T3, Small ubiquitin-related modifier 1 (Homo sapiens, UniProt P63165); experiment: inhibitors of SUMO1 peptide binding, dose response, biochemical, fluorescence polarization, uHTS hits (AID 624382); assay type: functional; settings: read-out: IC50_Mean
# [14] = target: T2, Small ubiquitin-related modifier 2; experiment: inhibitors of SUMO2 protein-protein interaction, dose response, selectivity assay for SUMO1 interaction inhibitor project, biochemical, FRET, human SUMO2, uHTS hits (AID 624384); assay type: functional; settings: read-out: IC50_Mean
# [15] = target: T3, Small ubiquitin-related modifier 1; experiment: inhibitors of SUMO1 partner interactions, dose response, biochemical, FRET (AID 624383); assay type: functional; settings: read-out: IC50_Mean
# [16] = Fluorescence-based cell-based high throughput dose response assay for inhibitors of the interaction of nucleotide-binding oligomerization domain containing 2 (NOD2) and the receptor-interacting serine-threonine kinase 2 (RIPK2).; assay type: functional; settings: Homo sapiens
# Beta Lactamase = Beta Lactamase (Pseudomonas aeruginosa, UniProt Q932Y6); experiment: beta-lactamase reporter inhibitor potency, dose response, artefact control for NOD2-RIPK2 interaction inhibitor project, BLA reporter cells, FRET fluorescence (AID 651552); assay type: functional, cell-based
# [17] = target: Melanin-concentrating hormone receptor 1 (Homo sapiens, UniProt Q99705); experiment: Late-stage fluorescence-based counterscreen for antagonists of the G-protein coupled receptor 7 (GPR7): cell-based dose response assay to identify antagonists of the melanin-concentrating hormone receptor 1 (MCHR1) Set 6.; assay type: functional
# [18] = target: T4, Neuropeptides B/W receptor type 1 (Homo sapiens, UniProt P48145); experiment: GPR7 antagonist potency, late-stage follow-up, cell-based, fluorescence, dose response, set 6 (AID 588583); assay type: functional
# T4 sequence (P48145 whole entry): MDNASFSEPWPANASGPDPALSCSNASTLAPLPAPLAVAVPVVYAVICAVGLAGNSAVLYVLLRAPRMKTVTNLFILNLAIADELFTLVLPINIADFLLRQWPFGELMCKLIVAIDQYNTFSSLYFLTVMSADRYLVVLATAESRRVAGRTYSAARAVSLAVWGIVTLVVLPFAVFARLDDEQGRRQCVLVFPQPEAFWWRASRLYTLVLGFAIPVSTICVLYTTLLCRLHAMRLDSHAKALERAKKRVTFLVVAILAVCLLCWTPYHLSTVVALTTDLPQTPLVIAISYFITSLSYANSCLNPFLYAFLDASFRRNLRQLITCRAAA
# Aurora kinase A = target: T5, Aurora kinase A (Homo sapiens, UniProt O14965); assay type: functional;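 further: value from the Navigating the Kinome kinase panel profiling, panel entry STK6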
# T5 sequence (O14965 whole entry): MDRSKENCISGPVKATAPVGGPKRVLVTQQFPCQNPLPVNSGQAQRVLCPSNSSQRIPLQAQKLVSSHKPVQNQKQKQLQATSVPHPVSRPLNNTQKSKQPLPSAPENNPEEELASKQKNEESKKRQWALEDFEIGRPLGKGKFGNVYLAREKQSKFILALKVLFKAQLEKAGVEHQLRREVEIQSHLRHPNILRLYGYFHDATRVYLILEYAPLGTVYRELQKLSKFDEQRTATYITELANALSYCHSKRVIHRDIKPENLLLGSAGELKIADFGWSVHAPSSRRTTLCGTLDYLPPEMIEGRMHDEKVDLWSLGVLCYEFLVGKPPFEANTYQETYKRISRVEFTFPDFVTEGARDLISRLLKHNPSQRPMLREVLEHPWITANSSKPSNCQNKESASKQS
# [19] = target: Vascular endothelial growth factor receptor 2 (Homo sapiens, UniProt P35968); assay type: functional
# Aurora kinase B = Aurora kinase B (Homo sapiens, UniProt Q96GD4); assay type: functional
# Chain of Aurora kinase B (Q96GD4 whole entry): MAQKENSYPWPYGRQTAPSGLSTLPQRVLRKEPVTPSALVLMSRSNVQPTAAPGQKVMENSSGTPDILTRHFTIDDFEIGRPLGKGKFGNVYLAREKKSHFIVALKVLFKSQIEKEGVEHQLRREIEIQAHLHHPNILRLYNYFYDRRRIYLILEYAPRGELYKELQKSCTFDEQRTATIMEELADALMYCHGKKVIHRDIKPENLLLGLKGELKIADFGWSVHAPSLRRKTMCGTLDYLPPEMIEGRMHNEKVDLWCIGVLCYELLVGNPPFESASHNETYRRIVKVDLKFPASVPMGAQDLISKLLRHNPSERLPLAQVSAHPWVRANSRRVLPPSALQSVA
# Chain of Melanin-concentrating hormone receptor 1 (Q99705 whole entry): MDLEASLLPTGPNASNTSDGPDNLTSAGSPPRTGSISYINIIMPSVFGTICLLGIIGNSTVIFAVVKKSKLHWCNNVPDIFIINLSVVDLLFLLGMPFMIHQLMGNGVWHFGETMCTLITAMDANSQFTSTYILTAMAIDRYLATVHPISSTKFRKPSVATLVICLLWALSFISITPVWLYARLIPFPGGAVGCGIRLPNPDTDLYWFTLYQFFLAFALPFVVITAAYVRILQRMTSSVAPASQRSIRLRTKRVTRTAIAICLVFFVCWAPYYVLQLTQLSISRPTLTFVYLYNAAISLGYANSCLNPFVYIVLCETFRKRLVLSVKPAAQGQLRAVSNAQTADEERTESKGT
# T3 sequence (P63165 whole entry): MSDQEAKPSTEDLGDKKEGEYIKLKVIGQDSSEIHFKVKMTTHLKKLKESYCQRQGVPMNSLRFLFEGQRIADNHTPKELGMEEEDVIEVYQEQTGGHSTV
# T2 sequence (P61956 whole entry): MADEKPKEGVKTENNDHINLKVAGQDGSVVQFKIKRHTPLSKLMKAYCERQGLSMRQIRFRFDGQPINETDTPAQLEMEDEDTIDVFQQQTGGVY
# Chain of Vascular endothelial growth factor receptor 2 (P35968 whole entry): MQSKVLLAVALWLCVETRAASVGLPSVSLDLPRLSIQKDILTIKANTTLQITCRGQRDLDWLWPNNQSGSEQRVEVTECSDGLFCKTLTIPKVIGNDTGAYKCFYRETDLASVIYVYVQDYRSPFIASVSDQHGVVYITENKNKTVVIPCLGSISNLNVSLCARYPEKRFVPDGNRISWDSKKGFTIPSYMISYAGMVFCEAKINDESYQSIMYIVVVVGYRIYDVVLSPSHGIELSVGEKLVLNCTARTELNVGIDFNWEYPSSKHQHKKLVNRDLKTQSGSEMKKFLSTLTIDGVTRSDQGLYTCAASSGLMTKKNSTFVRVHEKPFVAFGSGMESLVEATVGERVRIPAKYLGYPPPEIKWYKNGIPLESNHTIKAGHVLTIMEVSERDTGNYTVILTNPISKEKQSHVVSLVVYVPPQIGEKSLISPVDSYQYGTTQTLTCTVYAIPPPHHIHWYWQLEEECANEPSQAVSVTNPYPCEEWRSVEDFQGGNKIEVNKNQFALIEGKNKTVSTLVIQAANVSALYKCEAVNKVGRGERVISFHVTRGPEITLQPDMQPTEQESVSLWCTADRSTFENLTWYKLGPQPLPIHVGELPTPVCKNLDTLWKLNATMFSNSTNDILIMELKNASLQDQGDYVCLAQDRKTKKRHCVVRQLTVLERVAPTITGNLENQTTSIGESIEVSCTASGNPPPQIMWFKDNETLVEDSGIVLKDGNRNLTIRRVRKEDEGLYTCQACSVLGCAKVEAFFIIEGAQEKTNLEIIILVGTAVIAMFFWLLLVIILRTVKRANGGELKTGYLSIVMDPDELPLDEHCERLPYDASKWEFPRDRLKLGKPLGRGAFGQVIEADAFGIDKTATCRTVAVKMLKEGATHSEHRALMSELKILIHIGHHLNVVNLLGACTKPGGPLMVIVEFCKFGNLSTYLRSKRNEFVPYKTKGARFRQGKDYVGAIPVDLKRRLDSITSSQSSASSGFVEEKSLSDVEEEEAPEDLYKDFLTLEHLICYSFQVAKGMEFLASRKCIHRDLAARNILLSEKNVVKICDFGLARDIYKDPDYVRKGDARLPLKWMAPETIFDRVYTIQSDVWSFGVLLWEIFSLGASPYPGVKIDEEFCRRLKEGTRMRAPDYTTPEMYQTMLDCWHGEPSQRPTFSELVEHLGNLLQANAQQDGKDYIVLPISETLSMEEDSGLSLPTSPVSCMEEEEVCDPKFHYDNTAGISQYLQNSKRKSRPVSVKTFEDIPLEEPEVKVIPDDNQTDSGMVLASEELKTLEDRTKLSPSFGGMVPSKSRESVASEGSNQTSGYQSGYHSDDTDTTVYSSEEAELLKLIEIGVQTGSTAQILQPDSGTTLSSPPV
# Chain of Mitochondrial peptide methionine sulfoxide reductase (P54149 whole entry): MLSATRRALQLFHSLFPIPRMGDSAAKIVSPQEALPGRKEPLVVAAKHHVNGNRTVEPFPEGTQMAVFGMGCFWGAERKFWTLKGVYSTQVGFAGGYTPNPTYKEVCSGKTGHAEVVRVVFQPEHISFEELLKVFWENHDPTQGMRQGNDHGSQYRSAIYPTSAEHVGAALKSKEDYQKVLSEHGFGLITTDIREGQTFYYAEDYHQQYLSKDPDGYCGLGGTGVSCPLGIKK
# Chain of Beta-galactosidase (Q8VNN2 whole entry): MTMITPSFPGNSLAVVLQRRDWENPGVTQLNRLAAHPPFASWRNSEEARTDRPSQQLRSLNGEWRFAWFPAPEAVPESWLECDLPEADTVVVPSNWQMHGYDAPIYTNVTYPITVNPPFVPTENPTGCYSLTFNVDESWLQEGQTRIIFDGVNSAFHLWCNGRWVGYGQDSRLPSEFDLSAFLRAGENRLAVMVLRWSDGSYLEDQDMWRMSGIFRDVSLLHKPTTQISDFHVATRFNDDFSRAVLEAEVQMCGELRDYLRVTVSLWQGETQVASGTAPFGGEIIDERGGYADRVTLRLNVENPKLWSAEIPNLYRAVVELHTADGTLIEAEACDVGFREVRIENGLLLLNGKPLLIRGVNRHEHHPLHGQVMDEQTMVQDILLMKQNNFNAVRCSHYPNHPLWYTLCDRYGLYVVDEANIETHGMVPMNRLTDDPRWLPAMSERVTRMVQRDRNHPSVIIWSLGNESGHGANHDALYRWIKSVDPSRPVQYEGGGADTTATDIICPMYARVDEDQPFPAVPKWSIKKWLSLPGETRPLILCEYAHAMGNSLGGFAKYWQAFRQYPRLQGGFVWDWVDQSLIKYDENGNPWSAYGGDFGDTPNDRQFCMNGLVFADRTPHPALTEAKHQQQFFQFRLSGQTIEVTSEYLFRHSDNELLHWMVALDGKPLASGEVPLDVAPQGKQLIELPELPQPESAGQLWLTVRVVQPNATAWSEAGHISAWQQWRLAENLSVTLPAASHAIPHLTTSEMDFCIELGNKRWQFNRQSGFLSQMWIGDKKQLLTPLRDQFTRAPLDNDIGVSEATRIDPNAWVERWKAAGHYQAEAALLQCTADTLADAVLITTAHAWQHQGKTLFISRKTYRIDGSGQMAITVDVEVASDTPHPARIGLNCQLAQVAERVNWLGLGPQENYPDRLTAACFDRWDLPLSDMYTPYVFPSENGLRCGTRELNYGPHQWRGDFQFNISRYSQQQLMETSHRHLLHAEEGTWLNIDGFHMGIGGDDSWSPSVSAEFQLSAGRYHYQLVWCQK
# Chain of Paired box protein Pax-8 (Q06710 whole entry): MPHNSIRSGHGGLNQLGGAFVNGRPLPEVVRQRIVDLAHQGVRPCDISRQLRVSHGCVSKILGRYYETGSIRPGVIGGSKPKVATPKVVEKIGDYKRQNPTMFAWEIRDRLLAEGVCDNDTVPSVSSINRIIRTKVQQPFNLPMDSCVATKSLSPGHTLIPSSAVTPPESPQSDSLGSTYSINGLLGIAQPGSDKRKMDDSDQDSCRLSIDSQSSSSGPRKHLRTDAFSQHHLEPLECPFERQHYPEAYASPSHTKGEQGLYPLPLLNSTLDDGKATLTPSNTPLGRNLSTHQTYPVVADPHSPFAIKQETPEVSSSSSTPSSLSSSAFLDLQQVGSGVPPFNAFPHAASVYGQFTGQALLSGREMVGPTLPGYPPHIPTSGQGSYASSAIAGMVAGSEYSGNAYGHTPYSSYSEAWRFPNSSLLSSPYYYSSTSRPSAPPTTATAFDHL
# Chain of Glucose-6-phosphate 1-dehydrogenase (P11413 whole entry): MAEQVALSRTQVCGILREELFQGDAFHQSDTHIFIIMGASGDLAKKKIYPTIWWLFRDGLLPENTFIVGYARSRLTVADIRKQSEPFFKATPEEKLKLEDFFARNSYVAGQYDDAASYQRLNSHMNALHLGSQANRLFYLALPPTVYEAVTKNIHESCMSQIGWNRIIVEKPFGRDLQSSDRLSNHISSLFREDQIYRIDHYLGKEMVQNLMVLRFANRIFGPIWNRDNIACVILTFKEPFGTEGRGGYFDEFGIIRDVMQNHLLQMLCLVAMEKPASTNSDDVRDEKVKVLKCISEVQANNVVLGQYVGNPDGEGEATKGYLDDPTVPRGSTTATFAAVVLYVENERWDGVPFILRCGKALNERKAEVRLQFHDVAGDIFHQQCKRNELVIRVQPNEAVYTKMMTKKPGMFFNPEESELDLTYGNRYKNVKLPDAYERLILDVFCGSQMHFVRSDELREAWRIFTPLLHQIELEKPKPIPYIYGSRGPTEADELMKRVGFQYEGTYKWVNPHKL
# Chain of Beta Lactamase (Q932Y6 whole entry): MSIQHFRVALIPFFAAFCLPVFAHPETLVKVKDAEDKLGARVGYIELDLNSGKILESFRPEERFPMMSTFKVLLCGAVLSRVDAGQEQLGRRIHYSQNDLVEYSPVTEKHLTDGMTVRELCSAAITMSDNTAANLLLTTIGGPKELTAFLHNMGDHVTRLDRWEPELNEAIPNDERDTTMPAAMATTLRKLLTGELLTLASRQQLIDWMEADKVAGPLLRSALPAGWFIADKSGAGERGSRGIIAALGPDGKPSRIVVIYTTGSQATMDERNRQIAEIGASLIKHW
structure (smiles),measurement,setting,value
Cn1c(NNC(=O)c2c(F)cccc2F)cc(=O)n(C)c1=O,IC50,[1],28 µM (active)
same,IC50,[2],12.5 µM (active)
Cc1ccc(Cl)cc1N=C1C=C(NS(=O)(=O)c2cccs2)c2ccccc2C1=O,IC50,[3],> 80 µM (inactive)
same,IC50,[4],155 µM (inactive)
same,AC50,Paired box protein Pax-8,4.82 µM (active)
same,AC50,[5],10.1 µM (active)
same,AC50,[6],8 µM (active)
same,AC50,[7],4.71 µM (active)
same,AC50,[8],17.2 µM (active)
same,AC50,[9],5.09 µM (active)
same,AC50,[10],7.88 µM (active)
COc1ccc(-c2cc3nc(-c4ccccc4)cc(N4CCC(O)CC4)n3n2)cc1,CC50,[11],17 µM (active)
same,IC50,Beta-galactosidase,> 80 µM (inactive)
same,IC50,cells,34.9 µM (active)
COc1ccc(-c2csc(/C(C#N)=C\c3ccc(O)c([N+](=O)[O-])c3)n2)cc1OC,IC50,[12],35.7 µM (inactive)
same,IC50,[13],51.3 µM (inactive)
same,IC50,[14],> 66 µM (inactive)
same,IC50,[15],52.1 µM (inactive)
CC(=O)O/N=C1C=C/C(=C(\C#N)c2ccccc2)C=C/1,IC50,[16],5.83 µM (active)
same,IC50,Beta Lactamase,49.8 µM (inactive)
N#CC(c1ccccc1[N+](=O)[O-])c1c(Cl)cnn(Cc2cccc3ccccc23)c1=O (configuration not stated),IC50,[17],1.26 µM (active)
same,IC50,[18],1.26 µM (active)
N#CC(c1c(F)c(F)c(F)c(F)c1F)c1c(Cl)cnn(Cc2cccc3ccccc23)c1=O (configuration not stated),IC50,[17],1.56 µM (active)
same,IC50,[18],1.56 µM (active)
O=S(=O)(Nc1ccc2c(c1)C(=NO)c1ccccc1-2)c1cccc(Cl)c1,Ki,Aurora kinase A,> 2 µM (inactive)
same,Ki,[19],3.16 µM (active)
same,Ki,Aurora kinase B,0.00398 µM (active)
